# US12083101B2, “Biaryl derivatives as YAP/TAZ-TEAD protein-protein interaction inhibitors” (Novartis AG, priority 2020, dated 2024)
# Where two headings read alike, the source gives them in different places.
# What was measured:
# [1] = target: Avi-humanTEAD4 217-434 / Cy5 labeled humanYAP 60-100 (Homo sapiens (Human), UniProt Q15561); test: TR-FRET YAP-TEAD4 in-vitro biochemical assay; format: binding; conditions: 1 nM Avi-humanTEAD4 217-434, 20 nM Cy5-humanYAP 60-100, 1 h room temperature
# [2] = system: NCI-H2052 Tet-On shYAP_2371 pLenti6 MCAT_Luc cells (YAP-dependent transcription); test: YAP reporter gene activity assay (MCAT-luciferase), NCI-H2052; format: cell-based; conditions: 24 hours incubation, BrightGlo luminescence
# Outline: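 NCI-H2052 cells carrying an MCAT-luciferase reporter and a tetracycline-inducible YAP 3′UTR shRNA were treated with eleven 2-fold compound dilutions (0.1% DMSO) for 24 h at 37 °C. BrightGlo luminescence was background-subtracted and expressed as % of DMSO control. IC50 came from a four-parameter fit; MKN-45/Ubc-luc cells served as the specificity counterscreen.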
# [3] = system: NCI-H2052 Tet-On shYAP_2371 pLenti6 MCAT_Luc cells; test: Proliferation assay (resazurin), NCI-H2052; format: cell-based; conditions: 72 hours incubation
# Outline: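 The NCI-H2052 line carries a Tet-inducible shRNA against the YAP1 3′UTR and an MCAT luciferase reporter. The day after seeding, it received eleven 2-fold compound dilutions at 0.1% DMSO, and viability was read by resazurin fluorescence.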
# MKN-45/Ubc-luc cells [4] = test: Proliferation assay (resazurin), MKN-45; format: cell-based; conditions: 72 hours incubation
# MKN-45/Ubc-luc cells [5] = test: Reporter gene specificity control (Ubc-luciferase), MKN-45
# [6] = Homo sapiens, MKN-45, 24 h, read-out: Reporter gene assay MKN-45 IC50 [μM], MKN-45/Ubc-luc cells (YAP deleted, specificity control), 24 hours incubation
# [7] = read-out: Reporter gene assay MKN-45 IC50, MKN-45/Ubc-luc cells (YAP deleted, specificity control), 24 hours incubation
# Sequence of Avi-humanTEAD4 217-434 / Cy5 labeled humanYAP 60-100 (Q15561 217-434): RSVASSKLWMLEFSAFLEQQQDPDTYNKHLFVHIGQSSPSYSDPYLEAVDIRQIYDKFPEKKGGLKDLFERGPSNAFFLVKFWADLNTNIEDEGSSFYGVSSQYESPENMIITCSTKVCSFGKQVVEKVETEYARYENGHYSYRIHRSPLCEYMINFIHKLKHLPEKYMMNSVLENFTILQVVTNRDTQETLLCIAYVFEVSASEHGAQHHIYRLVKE
SMILES,IC50 [1],"IC50 ([2]; Homo sapiens, NCI-H2052, 24 h)","GI50 ([3]; Homo sapiens, NCI-H2052, 72 h)",GI50 (MKN-45/Ubc-luc cells [4]; Homo sapiens),IC50 (MKN-45/Ubc-luc cells [5]; [6]),IC50 [2],GI50 [3],GI50 (MKN-45/Ubc-luc cells [4]),IC50 (MKN-45/Ubc-luc cells [5]; [7])
"C[C@H](O)COc1ccc(C(N)=O)c(-c2c(Cl)ccc3c2C[C@@](CN)(c2ccccc2)O3)c1F (atropisomer, axis not shown) [Example 13, 2-((2S,4S)-2-(aminomethyl)-5-chloro-2-phenyl-2,3-dihydrobenzofuran-4-yl)-3-fluoro-4-((S)-2-hydroxypropoxy)benzamide]",6 nM,102 nM,166 nM,> 10000 nM,> 10 µM,,,,
"CNC(=O)c1ccc(OCCO)c(F)c1-c1c(Cl)c(F)cc2c1C[C@](c1ccccc1)([C@@H]1CCCCN1)O2 (atropisomer, axis not shown) [Example 161, 2-((2S,4S)-5-Chloro-6-fluoro-2-phenyl-2-((S)-piperidin-2-yl)-2,3-dihydrobenzofuran-4-yl)-3-fluoro-4-(2-hydroxyethoxy)-N-methylbenzamide]",29 nM,174 nM,167 nM,> 10000 nM,> 10 µM,,,,
"C[C@@H](O)COc1ccc(C(N)=O)c(-c2c(Cl)ccc3c2C[C@@](CN)(c2ccccc2)O3)c1F (atropisomer, axis not shown) [Example 14, 2-((2S,4S)-2-(aminomethyl)-5-chloro-2-phenyl-2,3-dihydrobenzofuran-4-yl)-3-fluoro-4-((R)-2-hydroxypropoxy)benzamide]",15 nM,176 nM,190 nM,> 10000 nM,> 10 µM,,,,
"C[C@@H](F)COc1ccc(C(N)=O)c(-c2c(Cl)ccc3c2C[C@@](CN)(c2ccccc2)O3)c1F (atropisomer, axis not shown) [Example 15, 2-((2S,4S)-2-(aminomethyl)-5-chloro-2-phenyl-2,3-dihydrobenzofuran-4-yl)-3-fluoro-4-((R)-2-fluoropropoxy)benzamide]",10 nM,270 nM,276 nM,> 10000 nM,> 10 µM,,,,
"NC[C@@]1(c2ccccc2)Cc2c(cc(F)c(Cl)c2-c2cc(SC(F)(F)CO)ccc2C(N)=O)O1 (atropisomer, axis not shown) [Example 39, 2-((2S,4R)-2-(aminomethyl)-5-chloro-6-fluoro-2-phenyl-2,3-dihydrobenzofuran-4-yl)-4-((1,1-difluoro-2-hydroxyethyl)thio)benzamide]",102 nM,2150 nM,2830 nM,> 10000 nM,> 10 µM,,,,
"COCCOc1ccc(C(N)=O)c(-c2c(Cl)ccc3c2[C@H](O)[C@@](CN)(c2ccccc2)O3)c1F (atropisomer, axis not shown) [Example 88, 2-((2S,3S,4S)-2-(aminomethyl)-5-chloro-3-hydroxy-2-phenyl-2,3-dihydrobenzofuran-4-yl)-3-fluoro-4-(2-methoxyethoxy)benzamide]",7 nM,91 nM,242 nM,> 10000 nM,> 10 µM,,,,
"CC(C)(O)C1CC(NC[C@@]2(c3ccccc3)Cc3c(cc(F)c(Cl)c3-c3c(C(N)=O)ccc(OC(F)F)c3F)O2)C1 (single isomer, unassigned) [Example 62b]",6 nM,,,,,54 nM,89 nM,> 10000 nM,> 10 µM
"COc1ccc(C(N)=O)c(-c2c(Cl)c(F)cc3c2[C@H](OC)[C@](c2ccccc2)(C2CCCN2)O3)c1F (stereo partly drawn) [Example 165, 2-((2S,3S,4S)-5-chloro-6-fluoro-3-methoxy-2-phenyl-2-(pyrrolidin-2-yl)-2,3-dihydrobenzofuran-4-yl)-3-fluoro-4-methoxybenzamide]",5 nM,82 nM,131 nM,> 10000 nM,> 10 µM,,,,
"COc1ccc(C(N)=O)c(-c2c(Cl)ccc3c2C[C@@](CN)(c2ccccc2)O3)c1F (single isomer, unassigned) [Example 5b]",23300 nM,,,,,> 10000 nM,> 10000 nM,> 10000 nM,> 10 µM
"COc1ccc(C(N)=O)c(-c2c(Cl)ccc3c2C[C@@](CN)(c2cscn2)O3)c1F (atropisomer, axis not shown) [Example 29, 2-((2R,4S)-2-(Aminomethyl)-5-chloro-2-(thiazol-4-yl)-2,3-dihydrobenzofuran-4-yl)-3-fluoro-4-methoxybenzamide]",10 nM,2000 nM,1850 nM,> 10000 nM,> 10 µM,,,,

# More lines, now with the values ahead:
IC50 [1],"IC50 ([2]; Homo sapiens, NCI-H2052, 24 h)","GI50 ([3]; Homo sapiens, NCI-H2052, 72 h)",GI50 (MKN-45/Ubc-luc cells [4]; Homo sapiens),IC50 (MKN-45/Ubc-luc cells [5]; [6]),IC50 [2],GI50 [3],GI50 (MKN-45/Ubc-luc cells [4]),IC50 (MKN-45/Ubc-luc cells [5]; [7]),SMILES
3 nM,,,,,35 nM,144 nM,6200 nM,> 10 µM,"C[C@H]1c2c(ccc(Cl)c2-c2c(C(N)=O)ccc(OC(F)F)c2F)O[C@]1(CN[C@H]1CC[C@@](C)(O)CC1)c1ccccc1 (relative stereo) [Example 104a, 2-((2S,3S,4S)-5-chloro-2-((((cis)-4-hydroxy-4-methylcyclohexyl)amino)methyl)-3-methyl-2-phenyl-2,3-dihydrobenzofuran-4-yl)-4-(difluoromethoxy)-3-fluorobenzamide]"
3 nM,75 nM,86 nM,> 10000 nM,> 10 µM,,,,,"COc1ccc(C(N)=O)c(-c2c(Cl)c(F)cc3c2[C@H](C)[C@@](CN)(c2ccccn2)O3)c1F (atropisomer, axis not shown) [Example 109, 2-((2R,3S,4S)-2-(aminomethyl)-5-chloro-6-fluoro-3-methyl-2-(pyridin-2-yl)-2,3-dihydrobenzofuran-4-yl)-3-fluoro-4-methoxybenzamide]"
< 1 nM,24 nM,104 nM,> 10000 nM,> 10 µM,,,,,"CNC(=O)c1ccc(OCCO)c(F)c1-c1c(Cl)c(F)cc2c1C[C@](c1ccccc1)([C@@H]1CCCN1)O2 (atropisomer, axis not shown) [Example 153, 2-((2S,4S)-5-Chloro-6-fluoro-2-phenyl-2-((S)-pyrrolidin-2-yl)-2,3-dihydrobenzofuran-4-yl)-3-fluoro-4-(2-hydroxyethoxy)-N-methylbenzamide]"
4 nM,379 nM,553 nM,> 12500 nM,19.5 µM,,,,,"COc1ncc(C(N)=O)c(-c2c(Cl)ccc3c2C[C@@](CN)(c2ccccc2)O3)c1F (atropisomer, axis not shown) [Example 18, 4-((2S,4S)-2-(Aminomethyl)-5-chloro-2-phenyl-2,3-dihydrobenzofuran-4-yl)-5-fluoro-6-methoxynicotinamide]"
3 nM,64 nM,99 nM,> 10000 nM,> 10 µM,,,,,"NC[C@@]1(c2ccccc2)Cc2c(ccc(Cl)c2-c2c(C(N)=O)ccc(OCCO)c2F)O1 (atropisomer, axis not shown) [Example 10, 2-((2S,4S)-2-(aminomethyl)-5-chloro-2-phenyl-2,3-dihydrobenzofuran-4-yl)-3-fluoro-4-(2-hydroxyethoxy)benzamide]"
5 nM,108 nM,172 nM,> 10000 nM,> 10 µM,,,,,"C[C@H]1c2c(ccc(Cl)c2-c2c(C(N)=O)ccc(OC(F)F)c2F)O[C@]1(CN)c1ccccc1 (atropisomer, axis not shown) [Example 103, 2-((2S,3S,4S)-2-(aminomethyl)-5-chloro-3-methyl-2-phenyl-2,3-dihydrobenzofuran-4-yl)-4-(difluoromethoxy)-3-fluorobenzamide]"
3 nM,,,,,18 nM,21 nM,16000 nM,11 µM,"COc1ccc(C(N)=O)c(-c2c(Cl)c(F)cc3c2[C@H](C)[C@@](CN)(c2ccccc2)O3)c1F [Example 176, 2-((2S,3S,4S)-2-(Aminomethyl)-5-chloro-6-fluoro-3-methyl-2-phenyl-2,3-dihydrobenzofuran-4-yl)-3-fluoro-4-methoxybenzamide]"
1 nM,12 nM,23 nM,> 8000 nM,> 8 µM,,,,,"NC(=O)c1ccc(OCCO)c(F)c1-c1c(Cl)c(F)cc2c1C[C@](c1ccccc1)([C@@H]1CCCN1)N2 (atropisomer, axis not shown) [Example 170, 2-((2S,4S)-5-Chloro-6-fluoro-2-phenyl-2-((S)-pyrrolidin-2-yl)indolin-4-yl)-3-fluoro-4-(2-hydroxyethoxy)benzamide]"
1 nM,14 nM,27 nM,> 4000 nM,> 4 µM,,,,,"CNC[C@]1(c2ccccc2)Oc2cc(F)c(Cl)c(-c3c(C(N)=O)ccc(OCCO)c3F)c2[C@@H]1C (atropisomer, axis not shown) [Example 110, 2-((2S,3S,4S)-5-Chloro-6-fluoro-3-methyl-2-((methylamino)methyl)-2-phenyl-2,3-dihydrobenzofuran-4-yl)-3-fluoro-4-(2-hydroxyethoxy)benzamide]"
